# Laboratory results taken from paper PMC6162207, “Identification and pharmaceutical evaluation of novel frog skin-derived serine proteinase inhibitor peptide–PE-BBI (Pelophylax esculentus Bowman-Birk inhibitor) for the potential treatment of cancer” (Scientific Reports, 2018).
# Positions of bridges follow the written chain, without caps; N, C: chain ends. Residues, ends and D or L forms follow the SMILES beside them.
# How the values were obtained:
# [1] = test system: Staphylococcus aureus (NCTC 10788); experiment: Antimicrobial MIC assay, S. aureus; assay type: cell-based; settings: 1 to 512 μM, MHB, 18 h, 37 °C, 6 replicates, absorbance 550 nm; data not shown
# Method: (§1) Gram-negative bacteria Escherichia coli (NCTC 10418); Gram-positive bacteria Staphylococcus aureus (NCTC 10788) and pathogenic yeast Candida albicans (NCYC 1467) were used in minimum inhibitory concentration (MIC) assays to investigate the board antimicrobial activity ability of synthetic PE-BBI. Microorganisms involved in MIC assays were cultured in MHB for 16–18 h. Then sub-cultured for 2~4 h to allow the microorganism to enter the logarithmic growth phase. Subsequently, proper density of bacterial (1 × 10^6 colony forming units (cfu)/mL) and fungi (1 × 10^5 cfu/mL) were seeded into 96 well plate. Different concentration ranged from 1 to 512 μM of PE-BBI were added into each well (6 replicates per concentration). The absorbance value at 550 nm was detected using a Synergy HT plate reader (Biotech, Minneapolis, MN, USA) after 18 h incubation in 37 °C incubator[50].
# [2] = test system: rat-tail artery smooth muscle; parameters: species or system rat (female Wistar)
# Method: Female Wistar rats (250–300 g) were applied in this study and sacrificed followed the principle of institutional animal experimentation ethics and UK animal research guidelines. All of the procedures involved in this study was approved by IACUC of Queen’s University Belfast. Rat-tail artery and bladder were isolated and located in pre-chilled Kreb’s solution equilibrated with 95% O2, 5% CO2[51]. Isolated muscle strips (2–10 mm) were vertically suspended in a 2 mL organ bath containing 37 °C Kreb’s solution. The Kreb’s solution was constant refreshing by constant flowing (2 mL/min) during the assay. Potassium chloride (KCL, 60 mM) was used to test for viability of muscle strips after 20 min equilibration. After the smooth muscle strip were prepared, the synthetic replicates of PE-BBI (10^−11 to 10^−5 M) was used to quantify the myogenic potency on rat-tail artery and bladder smooth muscle. Between each concentration, the smooth muscle strip was washed 5 mins and re-equilibration for another 5 min. Each data point was repeated on at least five independent muscle strips. The tension change was amplified and recorded by a PowerLab System (AD Instruments Pty Ltd.)[51].
# [3] = test system: Escherichia coli (NCTC 10418); experiment: Antimicrobial MIC assay, E. coli; assay type: cell-based; settings: 1 to 512 μM, MHB, 18 h, 37 °C, 6 replicates, absorbance 550 nm; data not shown
# Method: as §1
# [4] = test system: Candida albicans (NCYC 1467); experiment: Antimicrobial MIC assay, C. albicans; assay type: cell-based; settings: 1 to 512 μM, MHB, 18 h, 37 °C, 6 replicates, absorbance 550 nm; data not shown
# Method: as §1
# [5] = molecular target: T1, trypsin from bovine pancreas (Bos taurus, UniProt P00760); experiment: Trypsin inhibitory assay; assay type: biochemical
# T1 construct: purchased Sigma/Aldrich, Poole, Dorset, UK; host or cells: bovine pancreas
# T1 sequence (P00760 24-246): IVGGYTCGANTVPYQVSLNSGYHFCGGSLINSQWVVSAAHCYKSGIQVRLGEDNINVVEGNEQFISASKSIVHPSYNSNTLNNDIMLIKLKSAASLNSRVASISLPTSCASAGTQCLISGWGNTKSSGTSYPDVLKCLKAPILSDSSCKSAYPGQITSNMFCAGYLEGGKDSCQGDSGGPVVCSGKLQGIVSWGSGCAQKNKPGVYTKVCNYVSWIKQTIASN
compound,measurement,setting,value
CC[C@H](C)[C@@H]1NC(=O)[C@H](CO)NC(=O)[C@H](CCCCN)NC(=O)[C@H]([C@@H](C)O)NC(=O)[C@H](Cc2c[nH]c3ccccc23)NC(=O)[C@@H](NC(=O)CNC(=O)[C@H](CCCCN)NC(=O)[C@H](CC(C)C)NC(=O)[C@H](C)NC(=O)CN)CSSC[C@@H](C(=O)N[C@@H](CCCCN)C(N)=O)NC(=O)[C@@H]2CCCN2C(=O)[C@H](CCCCN)NC(=O)[C@@H]2CCCN2C(=O)[C@@H]2CCCN2C1=O [PE-BBI] (H-GALKGCWTKSIPPKPCK-NH2; disulfide 6-16; N-terminus assumed),"antimicrobial activity (MIC), S. aureus",[1],didn’t show any obviously antibacterial activity even in the highest concentration (512 μM)
same,EC50,[2],8.79 nM
same,"antimicrobial activity (MIC), E. coli",[3],didn’t show any obviously antibacterial activity even in the highest concentration (512 μM)
same,"antimicrobial activity (MIC), C. albicans",[4],didn’t show any obviously antibacterial activity even in the highest concentration (512 μM)
same,Ki,[5],310 ± 72 nM
same,mode of trypsin inhibition,[5]; PE-BBI 0.1–100 µM,competitive reversible trypsin inhibitory activity
